According to ChEMBL document CHEMBL1201862, “PubChem BioAssay data set” (2004):
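Cultured in 96-well plates, cells were exposed to test compound for 48 hours across five concentrations. GI50 = concentration required for 50% inhibition of growth.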 Activity calls are given as the source filed them. Rule as the data show it: active = GI50 up to about 1.1 µM and inactive = higher.

Experiments:
Assay in all cases: growth of human tumour cells (NCI), 48 h
DMS-273 = test system: DMS-273
DLD-1 = test system: DLD-1
LXFL 529 = test system: LXFL 529
XF498 = test system: XF498
DMS-114 = test system: DMS-114
M19-MEL = test system: M19-MEL
HOP-18 = test system: HOP-18
KM-20L2 = test system: KM-20L2
RXF 631 = test system: RXF 631

| SMILES | GI50 (DMS-273) | GI50 (DLD-1) | GI50 (LXFL 529) | GI50 (XF498) | GI50 (DMS-114) | GI50 (M19-MEL) | GI50 (HOP-18) | GI50 (KM-20L2) | GI50 (RXF 631) |
| --- | --- | --- | --- | --- | --- | --- | --- | --- | --- |
| CCN(CC)CCCNc1ccc2ncn3c4ccc(O)cc4c(=O)c1c23 | 0.553 µM (active) | 1.24 µM (inactive) | 2.65 µM (inactive) | 0.239 µM (active) | 3.37 µM (inactive) | 5.83 µM (inactive) | 18.6 µM (inactive) | 2.85 µM (inactive) |  |
| CSC(=S)N/N=C/c1nccc2ccccc12 | 1.85 µM (inactive) | 0.537 µM (active) | 0.488 µM (active) | 0.809 µM (active) | 0.627 µM (active) | 2.29 µM (inactive) | 1.82 µM (inactive) | 0.43 µM (active) | 4.69 µM (inactive) |
| CC(=O)O[C@]1(C)OC(=O)[C@@H](CC(C)C)N1[N+](=O)[O-] | > 100 µM (inactive) | > 100 µM (inactive) | > 100 µM (inactive) | < 0.01 µM (active) | > 100 µM (inactive) | > 100 µM (inactive) | > 100 µM (inactive) | > 100 µM (inactive) |  |
| CC1(C)OC(=O)C(=C2CC(c3ccccc3)c3ccccc32)C(=O)O1 (configuration not stated) |  | > 100 µM (inactive) | > 100 µM (inactive) |  | > 100 µM (inactive) | > 100 µM (inactive) | > 100 µM (inactive) | > 100 µM (inactive) | > 100 µM (inactive) |
| CCOc1ccc(/N=C\c2cc(OC)c(OC)c(OC)c2)cc1 | > 100 µM (inactive) | > 100 µM (inactive) | > 100 µM (inactive) | > 100 µM (inactive) | > 100 µM (inactive) | > 100 µM (inactive) | > 100 µM (inactive) | > 100 µM (inactive) |  |
| COc1ccc2nc3ccccc3c(NCCCN(C)CCCl)c2c1 | 0.153 µM (active) | 0.233 µM (active) | 0.0995 µM (active) | 0.212 µM (active) | 0.311 µM (active) | 0.353 µM (active) |  | 0.17 µM (active) | 0.23 µM (active) |
| [O-][S+]1Nc2cccc(C(F)(F)F)c2S1 (configuration not stated) | 25.1 µM (inactive) | 34.4 µM (inactive) | 26.5 µM (inactive) | 21.1 µM (inactive) | 20.1 µM (inactive) | 66.1 µM (inactive) | 72.4 µM (inactive) | 29.9 µM (inactive) |  |
| O=c1nc2sc3ccc4ccccc4c3n2nc1-c1ccccc1 | 39.2 µM (inactive) | 35.6 µM (inactive) | 44.7 µM (inactive) | 29.6 µM (inactive) | > 100 µM (inactive) | 78.3 µM (inactive) | 30.5 µM (inactive) | 62.8 µM (inactive) | 36.6 µM (inactive) |
| CC(C)N1CC2CC(CN(C(=O)c3ccccc3)C2)C1.[O-][Cl+3]([O-])([O-])O | > 100 µM (inactive) |  | > 100 µM (inactive) | > 100 µM (inactive) | > 100 µM (inactive) | > 100 µM (inactive) | > 100 µM (inactive) | > 100 µM (inactive) | > 100 µM (inactive) |
| CCOC(=O)NC(=O)c1cn(CCN2CCN(C(=O)CCCCCCCCCCNc3ncnc4[nH]cnc34)CC2)c(=O)[nH]c1=O | > 100 µM (inactive) | > 100 µM (inactive) | 39.8 µM (inactive) |  |  | > 100 µM (inactive) | > 100 µM (inactive) | > 100 µM (inactive) |  |
| CC1=C(/C(C)=N/NC(=O)C(N)=O)Sc2ccccc2N1 | > 100 µM (inactive) | > 100 µM (inactive) | > 100 µM (inactive) | > 100 µM (inactive) | > 100 µM (inactive) | > 100 µM (inactive) | > 100 µM (inactive) | > 100 µM (inactive) |  |
| COc1cc(/C=C/C(=O)c2sc(Nc3ccccc3)nc2C)ccc1O | > 100 µM (inactive) | 37.5 µM (inactive) |  |  | 44.6 µM (inactive) | > 100 µM (inactive) | > 100 µM (inactive) | > 100 µM (inactive) |  |
| COc1ccc(C2S/C(=C\c3cccc([N+](=O)[O-])c3)C(=O)N2NC(=O)Cc2ccccc2)cc1 (configuration not stated) | > 100 µM (inactive) | > 100 µM (inactive) | > 100 µM (inactive) |  | > 100 µM (inactive) | > 100 µM (inactive) | > 100 µM (inactive) |  |  |
| COc1ccc(C(=O)C(C(=O)C(=O)Nc2nccs2)c2ccc(OC)cc2)cc1 (configuration not stated) | > 100 µM (inactive) | > 100 µM (inactive) | > 100 µM (inactive) | > 100 µM (inactive) | > 100 µM (inactive) |  | > 100 µM (inactive) | > 100 µM (inactive) |  |
| O=C(c1ccc(Cl)cc1)c1ccc(OCCCCCCCCCCOc2ccc(C(=O)c3ccc(Cl)cc3)cc2)cc1 | > 100 µM (inactive) | > 100 µM (inactive) |  |  | > 100 µM (inactive) |  |  | > 100 µM (inactive) | > 100 µM (inactive) |
| C[C@@H]1CC(=O)C2CCCC1C2=O (some centres not stated) | > 100 µM (inactive) | > 100 µM (inactive) | > 100 µM (inactive) |  | > 100 µM (inactive) | > 100 µM (inactive) | > 100 µM (inactive) | > 100 µM (inactive) | > 100 µM (inactive) |
| COc1cc2cc(OC)c3cc4c(cc3c2c(OC)c1OC)OCO4 | 15.1 µM (inactive) | 18.1 µM (inactive) | 31.3 µM (inactive) |  | 35.7 µM (inactive) | 20.8 µM (inactive) | 67.6 µM (inactive) | 11.6 µM (inactive) | 32.5 µM (inactive) |
| O=[N+]([O-])c1ccc(C2N3CCCCC3[C@@H]3c4[nH]c5ccccc5c4CCN23)cc1 (some centres not stated) | 17.5 µM (inactive) | 10.8 µM (inactive) | 16.8 µM (inactive) | 17.8 µM (inactive) | 7.19 µM (inactive) | 6.07 µM (inactive) | 67.3 µM (inactive) | 11 µM (inactive) | 28.5 µM (inactive) |
| COc1cc(C(=O)C/C(CCC(=O)Nc2ccccc2[N+](=O)[O-])=N\NC(N)=O)ccc1O | > 100 µM (inactive) |  |  | 6.49 µM (inactive) | > 100 µM (inactive) | > 100 µM (inactive) | 89.1 µM (inactive) | > 100 µM (inactive) | > 100 µM (inactive) |
| NC(CS)C(=O)NCCNc1ccc(NCCNC(=O)C(N)CS)c2c1C(=O)c1c(O)ccc(O)c1C2=O (configuration not stated) | 0.00168 µM (active) | 0.121 µM (active) | 0.106 µM (active) | 0.0138 µM (active) | 0.00143 µM (active) | 0.0318 µM (active) | 0.439 µM (active) | 0.0618 µM (active) |  |
| COC(=O)C1=C(C(=O)OC)C2C=CC1C1C(Cl)=C(Cl)C21 (configuration not stated) | > 100 µM (inactive) | > 100 µM (inactive) | > 100 µM (inactive) |  | > 100 µM (inactive) | > 100 µM (inactive) | > 100 µM (inactive) | > 100 µM (inactive) | > 100 µM (inactive) |
| O=C(/C=C/c1ccc(Br)cc1)c1ccc(NCc2nc3ccccc3[nH]2)cc1 | 5.7 µM (inactive) | 4.83 µM (inactive) | 4.24 µM (inactive) | 5.89 µM (inactive) | 2.99 µM (inactive) | 6.56 µM (inactive) | > 46.2 µM (inactive) | 4.83 µM (inactive) |  |
| CC(=O)Nc1ccc(-c2nnc(SCC(=O)Nc3ccccc3[N+](=O)[O-])o2)cc1 | > 100 µM (inactive) | > 100 µM (inactive) | 29.9 µM (inactive) |  | 27.9 µM (inactive) | > 100 µM (inactive) | > 100 µM (inactive) | > 100 µM (inactive) |  |
| C1CCOC2(CCC3(CC2)OCCCCO3)OC1 | > 100 µM (inactive) | > 100 µM (inactive) | > 100 µM (inactive) |  | > 100 µM (inactive) | > 100 µM (inactive) | > 100 µM (inactive) | > 100 µM (inactive) |  |
| CCCC(O)[C@@H](O)c1ccc2c(c1O)C(=O)c1c(OC)cccc1C2=O (some centres not stated) | 35.5 µM (inactive) | 36.9 µM (inactive) |  | 20.2 µM (inactive) | 26.2 µM (inactive) | 24.2 µM (inactive) | 50.8 µM (inactive) | 50.9 µM (inactive) | 28.2 µM (inactive) |
| CCCCCCCCCCCCCCCCCC(=O)NCC(COP(=O)([O-])OCC[N+](C)(C)C)OC (configuration not stated) | 1.58 µM (inactive) | 2.59 µM (inactive) | 6.78 µM (inactive) | 2.71 µM (inactive) | 10.6 µM (inactive) | 2.43 µM (inactive) | 3.78 µM (inactive) | 2.23 µM (inactive) | 13.4 µM (inactive) |
| C[N+](C)(C)CC1CCC(C[N+](C)(C)C)C1=O (configuration not stated) | 2.16 µM (inactive) | 2.2 µM (inactive) | 0.555 µM (active) | 2.03 µM (inactive) | 2.34 µM (inactive) | 1.94 µM (inactive) | 0.794 µM (active) | 3.18 µM (inactive) | 5.47 µM (inactive) |
| Cn1c2ccccc2c2[nH]cc3nc4ccccc4c-3c21 | 16.2 µM (inactive) | > 100 µM (inactive) | 25.2 µM (inactive) | 17.4 µM (inactive) | 22.9 µM (inactive) | 19.7 µM (inactive) |  | 16.7 µM (inactive) | 29.5 µM (inactive) |
| COc1ccc(C2Cc3cc(OC)c(OC)c(OC)c3C2)cc1 (configuration not stated) | 36.8 µM (inactive) | 44.7 µM (inactive) |  | 11.3 µM (inactive) | 27.8 µM (inactive) | 41.9 µM (inactive) | 72.3 µM (inactive) | 49.8 µM (inactive) |  |
